Results: paper PMC2192493 (The Journal of Experimental Medicine, 1996)

Key:
H-2Kd [1] = target: T1, H-2Kd (Mus musculus, UniProt P01902); assay: Competitive inhibition of 125I-LLO; type: binding; conditions: for binding to H-2Kd (in words): peptide-binding inhibition experiments, Fig. 1
H-2Kd [2] = target: T1, H-2Kd; conditions: cited from earlier work
[3] = cited from earlier work
CMS1 = assay: 4-h 51Cr release assay of vaccine-induced effectors, CMS1 targets; type: cell-based, mouse; conditions: separate experiment, data not shown
Meth A = assay: 4-h 51Cr release assay of vaccine-induced effectors, Meth A targets; type: cell-based, mouse; conditions: 239CM-induced CTL; separate experiment, data not shown

T1 sequence (P01902 whole entry, looked up): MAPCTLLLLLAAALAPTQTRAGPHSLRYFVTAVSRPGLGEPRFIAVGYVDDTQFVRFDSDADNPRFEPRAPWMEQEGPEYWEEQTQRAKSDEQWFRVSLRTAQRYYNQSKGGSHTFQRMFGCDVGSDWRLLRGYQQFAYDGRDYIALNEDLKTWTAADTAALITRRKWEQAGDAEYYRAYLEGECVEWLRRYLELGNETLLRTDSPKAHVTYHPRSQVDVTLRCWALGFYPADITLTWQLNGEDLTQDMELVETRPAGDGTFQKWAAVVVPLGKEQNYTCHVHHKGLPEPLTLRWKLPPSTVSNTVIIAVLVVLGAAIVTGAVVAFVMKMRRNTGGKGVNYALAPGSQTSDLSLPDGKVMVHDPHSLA

With “234CW: wild-type peptide p53(232-240) (KYMCNSSCM; UniProt P02340 232-240, looked up, fragment)” the “binding to H-2Kd (in words)” value (H-2Kd [1]) was “capable of binding to H-2Ka”.
For GYKDGNEYI [LLO], the “binding affinity to H-2Kd (in words)” value (H-2Kd [2]) is given as “high affinity”.
In the case of LFCQLAKTC [132CW], the “immunogenicity (in words)” value [3] is listed as “lack of immunogenicity”.
For LFFQLAKTC [132CM], the “immunogenicity (in words)” value [3] is listed as “lack of immunogenicity”.
In the case of MTEVVRtkCP [168CW], the “immunogenicity (in words)” value [3] is listed as “lack of immunogenicity”.
In the case of MTGVVR.R.CP [168CM], the “immunogenicity (in words)” value [3] is listed as “lack of immunogenicity”.
In the case of KYMCNSSFM [239CM], the “induction of CTL reactive against CMS1” value (CMS1) is reported as “induced CTL reactive against CMS1”, the “induction of CTL reactive against Meth A” value (Meth A) is reported as “not Meth A” and the “binding to H-2Kd (in words)” value (H-2Kd [1]) is reported as “capable of binding to H-2Ka”.
For “GFKDGNEYI [LLO(Y2F), reference compound]”, the “relative binding to H-2Kd (in words)” value (H-2Kd [1]; compared with other peptides in the same assay) was “comparable to that of the parent peptide”.
